In assay [1] the test system is C. albicans, Fluconazole, Voriconazole, Itraconazole and/or Caspofungin resistant isolates. In words: Susceptibility of resistant clinical isolates (MIC, broth dilution). The format is cell-based. Particulars: for MIC90: Candida albicans. For orientation: In broth dilution the organism is exposed to a series of concentrations in liquid medium.
The subject of assay [2] is C. glabrata, Fluconazole, Voriconazole, Itraconazole and/or Caspofungin resistant isolates. Described as above. Format: cell-based. Particulars: for MIC90: Nakaseomyces glabratus. As to the method: The efficacy of compound IV″ was investigated on 563 clinical isolates of 33 human fungal pathogens. […] For species with n≧10, the MIC90 (MIC, minimal inhibitory concentration) is given as ng/ml. For species with n≦10, the MIC range is given as ng/ml. 24 h and 48 h reads are indicated (Table 1).
The MIC90 was calculated for the indicated species.

In brackets after ≈: the same amount, converted by molar mass.

What is called MIC90 is the lowest concentration that inhibits either 90% of growth or 90% of the strains tested, depending on the study. Turning to `O=C([O-])CCCCCCC/C=C\C#CC#Cc1ccco1.[K+]` [Compound IV″, potassium (Z)-14-(furan-2-yl)tetradeca-9-en-11,13-diynoate], the figures for the MIC90 in assay [1] and in assay [2] were 0.0025 µg/mL and 0.02 µg/mL, respectively. Moreover, the “MIC90/MIC range 48 h” value turned out to be 0.0025 µg/mL in assay [1] (resistant C. albicans isolates (n = 20), MIC90, 48 h) and 0.02 µg/mL in assay [2] (resistant C. glabrata isolates (n = 21), MIC90, 48 h).
For `C[C@@H](c1ncncc1F)[C@](O)(Cn1cncn1)c1ccc(F)cc1F` [Voriconazole], the figures for the MIC90 in assay [1] and in assay [2] were more than 0.5 µg/mL and 0.5 µg/mL (≈ 1.43 µM), respectively.
